≈ marks a conversion by molar mass, not a printed value.
How the values were obtained:
Assay type in all cases: functional
[1] = test system: Xanthomonas campestris; test: Antibacterial activity against Xanthomonas campestris
[2] = test system: Xanthomonas oryzae; test: Antibacterial activity against Xanthomonas oryzae
[3] = test system: Staphylococcus aureus; test: Antibacterial activity against methicillin-resistant Staphylococcus aureus ATCC 43300 assessed as reduction in bacterial growth measured for 12 hrs by CLSI protocol based broth microdilution method
[4] = test system: Staphylococcus aureus; test: Antibacterial activity against methicillin-resistant Staphylococcus aureus
[5] = test system: Staphylococcus aureus; test: Antibacterial activity against Staphylococcus aureus
[6] = test system: Escherichia coli; test: Antibacterial activity against Escherichia coli
[7] = test system: Bacillus cereus; test: Antibacterial activity against Bacillus cereus
[8] = test system: Bacillus subtilis; test: Antibacterial activity against Bacillus subtilis ATCC 6633 assessed as reduction in microbial growth
[9] = test system: Staphylococcus aureus; test: Antibacterial activity against Staphylococcus aureus ATCC 33592 assessed as reduction in microbial growth
[10] = test system: Staphylococcus aureus; test: Antibacterial activity against Staphylococcus aureus ATCC 25923 assessed as reduction in microbial growth
[11] = test system: Bacillus subtilis; test: Antibacterial activity against Bacillus subtilis
[12] = test system: Staphylococcus aureus; test: Antibacterial activity against Staphylococcus aureus ATCC 33591
[13] = test system: Enterococcus faecalis; test: Antibacterial activity against Vancomycin-resistant Enterococcus faecalis ATCC 51299
[14] = test system: Streptococcus suis; test: Antibacterial activity against Streptococcus suis SC19 assessed as reduction in bacterial growth by CLSI protocol based MHB micro-silution method
[15] = test system: Staphylococcus aureus; test: Antibacterial activity against Staphylococcus aureus ATCC 25923 assessed as reduction in bacterial growth by CLSI protocol based MHB micro-silution method
[16] = test system: Escherichia coli; test: Antibacterial activity against […] Escherichia coli ATCC 25922 assessed as reduction in bacterial growth measured for 12 hrs by CLSI protocol based broth microdilution method
[17] = test system: Staphylococcus aureus; test: Antimicrobial activity against Staphylococcus aureus ATCC 29213 assessed as reduction in microbial growth incubated for 16 hrs by CLSI protocol based Mueller-Hinton broth micro-dilution method
[18] = test system: Staphylococcus epidermidis; test: Antimicrobial activity against Staphylococcus epidermidis ATCC 12228 assessed as reduction in microbial growth incubated for 16 hrs by CLSI protocol based Mueller-Hinton broth micro-dilution method

For `CO[C@H]1/C=C\C=C(/C)C(=O)NC2=CC(=O)C(O)=C(C[C@@H](C)C[C@H](OC)[C@H](O)[C@@H](C)/C=C(\C)[C@@H]1OC(N)=O)C2=O`, which MIC [1] is on record?
Its MIC is 0.25 µg/mL (≈ 0.457 µM).

What about the MIC [2] of the same compound?
The MIC was 0.125 µg/mL (≈ 0.229 µM).

Which results are given for `CO[C@H]1C[C@H](C)Cc2cc(O)cc(c2)NC(=O)/C(C)=C/CC[C@H](OC)[C@@H](OC(N)=O)/C(C)=C/[C@H](C)[C@H]1O`?
MIC [1]: 2.03 µg/mL (≈ 3.91 µM); MIC [2]: 0.25 µg/mL (≈ 0.482 µM)

Which MIC [3] does the source give for `CC(=O)c1cc(C)c(C)n1CCc1c[nH]c2ccccc12` here?
The MIC was 25 µg/mL (≈ 89.2 µM).

`CC(C)c1cc(=O)c2c(cc(O)c3c(=O)c4c(O)c(Br)ccc4c(=O)c32)c1=O` was tested. Which MIC [4] did it give?
Its MIC is 0.098 µg/mL.

With `CC[C@@H]1NC(=O)[C@@H](CC(C)C)NC(=O)C(NC(=O)[C@@H](CC(=O)C(CC(=O)C(CC(O)c2ccccc2)NC(=O)[C@@H](CCCN)NC(=O)CCNC(=O)/C=C\C=C\C(C)C)C(O)CC(=O)O)Cc2ccc(O[C@@H]3OC[C@H](O)[C@H](O)[C@H]3O)cc2)C(C)NC(=O)[C@@H]2CCCN2C(=O)[C@H](C)NC(=O)[C@H](CC(=O)c2ccc(Cl)cc2N)NC(=O)CNC(=O)[C@H](CO)NC(=O)CNC1=O` (stereo partly drawn) as the compound, how does the MIC [5] read?
Its MIC is 0.5 µg/mL (≈ 0.275 µM).

And the MIC [6]?
The MIC was > 64 µg/mL.

How did the MIC [7] turn out when `CC1=C(CC2=C(O)C(=O)c3cc(O)c(C)c(O)c3C2=O)CCC(C)(C)C1` was run?
Its MIC is 6.25 µg/mL (≈ 17.5 µM).

`CC[C@H](C)[C@@H]1NC(=O)[C@@H](Cc2c[nH]c3cc(Br)ccc23)NC(=O)[C@@H](Cc2c[nH]c3ccccc23)NC(=O)[C@@H](CO)NC(=O)[C@@H](CCC(=O)O)NC(=O)[C@@H](C(C)C)NC1=O` was tested. Which MIC [8] did it give?
The MIC was 1.6 µg/mL.

And the MIC [9]?
The MIC was 6.3 µg/mL.

And the MIC [10]?
The MIC was 6.3 µg/mL.

For `CCc1c(Cc2ccccc2)oc(=O)c(CC)c1O`, which MIC [4] is on record?
The MIC was 12.5 µg/mL.

What about the MIC [11] of the same compound?
The MIC was > 50 µg/mL.

With `COc1cc2oc3c(O)c4c(c(O)c3c(=O)c2cc1O)-c1c(cc2cc(C)n(CCO)c(=O)c2c1O)CC4` as the compound, how does the MIC [12] read?
The MIC was 0.25 µg/mL (≈ 0.483 µM).

And the MIC [13]?
Its MIC is 0.25 µg/mL (≈ 0.483 µM).

For `CCC[C@@H](O)Cc1cc(O)cc2c1C(=O)c1c(O)ccc(O)c1C2=O`, which MIC [14] is on record?
Its MIC is 1.56 µg/mL (≈ 4.56 µM).

And the MIC [15]?
The MIC was 1.56 µg/mL (≈ 4.56 µM).

For `C=CC(C)(C)ON(CCCCCCC(O)CCCCCc1nc(CCCNC(=N)NCC=C(C)C)c(OC)nc1CCCNC(=N)NCC=C(C)C)C(=N)N` (stereo not drawn), which MIC [4] is on record?
The MIC was 1 µg/mL.

What about the MIC [6] of the same compound?
The MIC was 1 µg/mL.

How did the MIC [4] turn out when `COC(=O)c1csc(-c2nc3c(-c4ccc(OC)cc4)c(OC)c(O)c(-c4ccc(OC)cc4)c3s2)n1` was run?
Its MIC is > 50 µg/mL.

And the MIC [11]?
The MIC was 0.8 µg/mL (≈ 1.5 µM).

And the MIC [6]?
Its MIC is 0.8 µM.

For `COC(=O)[C@]1(O)C[C@@H](C)C[C@H](OC)[C@H](O)[C@@H](C)C/C=C(/C)[C@H](OC(N)=O)[C@@H](OC)/C=C\C=C(/C)C(=O)NC2=CC(=O)O[C@]21O`, which MIC [1] is on record?
The MIC was 16.2 µg/mL (≈ 26 µM).

And the MIC [2]?
The MIC was 2.03 µg/mL (≈ 3.25 µM).

Which MIC [3] does the source give for `CC(=O)NCCc1c(CC2c3ccccc3[C@]3(O)CCN(C(C)=O)[C@@]23O)[nH]c2ccccc12` (stereo partly drawn) here?
Its MIC is 25 µg/mL (≈ 55.9 µM).

What about the MIC [16] of the same compound?
Its MIC is 13 µg/mL (≈ 29 µM).

With `COc1cc2oc3c(c(=O)c2cc1O)C(=O)C1=C(CCc2cc4cc(C)n(CCO)c(=O)c4c(O)c21)C3=O` as the compound, how does the MIC [12] read?
Its MIC is 0.12 µg/mL (≈ 0.233 µM).

And the MIC [13]?
Its MIC is 0.25 µg/mL (≈ 0.485 µM).

For `C/C=C1\NC(=O)[C@@H](CC)NC(=O)CNC(=O)[C@@](C)(C(C)=O)NC(=O)[C@H](Cc2c[nH]c3ccc(O)c(OC)c23)NC(=O)c2csc(n2)[C@@H](C)NC(=O)CNC1=O`, which MIC [17] is on record?
The MIC was 200 µg/mL.

What about the MIC [18] of the same compound?
The MIC was 12.5 µM.

How did the MIC [17] turn out when `C/C=C1\NC(=O)[C@@H](C)NC(=O)CNC(=O)[C@@](C)(C(C)=O)NC(=O)[C@H](Cc2c[nH]c3cccc(OC)c23)NC(=O)c2csc(n2)[C@@H](C)NC(=O)CNC1=O` was run?
Its MIC is 12.5 µg/mL.

And the MIC [18]?
The MIC was 50 µM.

For `CC(=O)NCCc1c(CN2c3ccccc3[C@@]3(O)CCN(C(C)=O)[C@]23O)[nH]c2ccccc12`, which MIC [3] is on record?
The MIC was 7 µg/mL (≈ 15.6 µM).

What about the MIC [16] of the same compound?
Its MIC is 25 µg/mL (≈ 55.7 µM).

`C=CC(C)(C)ON(CCCCCCCCCCCC(O)c1nc(CCCNC(=N)N)c(OC)nc1CCCNC(=N)N)C(=N)N` (stereo not drawn) was tested. Which MIC [4] did it give?
Its MIC is 0.8 µg/mL.

And the MIC [6]?
The MIC was 1.5 µg/mL.

Which MIC [5] does the source give for `CC[C@@H]1NC(=O)[C@@H](CC(C)C)NC(=O)C(NC(=O)[C@@H](CC(=O)C(CC(=O)C(CC(O)c2ccccc2)NC(=O)[C@@H](CCCNC(=O)CCN)NC(=O)CCNC(=O)/C=C\C=C\C(C)C)C(O)CC(=O)O)Cc2ccc(O[C@@H]3OC[C@H](O)[C@H](O)[C@H]3O)cc2)C(C)NC(=O)[C@@H]2CCCN2C(=O)[C@H](C)NC(=O)[C@H](CC(=O)c2ccc(Cl)cc2N)NC(=O)CNC(=O)[C@H](CO)NC(=O)CNC1=O` (stereo partly drawn) here?
Its MIC is 1 µg/mL (≈ 0.53 µM).

What about the MIC [6] of the same compound?
Its MIC is > 64 µg/mL.

Which MIC [4] does the source give for `CC(=O)NC(CSc1c(C(C)C)c(=O)c2cc(O)c3c(=O)c4c(O)cccc4c(=O)c3c2c1=O)C(=O)O` (stereo not drawn) here?
Its MIC is 0.195 µg/mL.

With `CC[C@H]1NC(=O)CNC(=O)[C@@](C)(C(C)=O)NC(=O)[C@H](Cc2c[nH]c3cccc(OC)c23)NC(=O)c2csc(n2)[C@@H](C)NC(=O)CNC(=O)/C(=C/CO)NC1=O` as the compound, how does the MIC [17] read?
Its MIC is 25 µg/mL.

And the MIC [18]?
The MIC was 1.6 µM.

For `COC(=O)CCSC1=C(c2ccc(OC)cc2)C(O)C(OC)=C(c2ccc(OC)cc2)C1=O` (stereo not drawn), which MIC [4] is on record?
Its MIC is 12.5 µM.
